Values belong to the molecule of their own block, whether it stands above or below them.
Biological target: KRAS G12D (Homo sapiens, UniProt P01116, G12D)
Assay: GDP-GTP exchange assay (bodipy-GDP/GppNHp, SOS1), KRAS G12D
Type: biochemical
Details: bodipy-loaded KRAS G12D 2.5 nM, 4 hours incubation after adding GppNHp-SOS1 mixture
Description: The inhibitor potency of the exemplified compounds was determined in a fluorescence based guanine nucleotide exchange assay, which measures the exchange of bodipy-GDP (fluorescently labeled GDP) for GppNHp (Non-hydrolyzable GTP analog) to generate the active state of KRAS in the presence of SOS1 (guanine nucleotide exchange factor). Inhibitors were serially diluted in DMSO and a volume of 0.1 μL was transferred to the wells of a black low volume 384-well plate. 5 μL/well volume of bodipy-loaded KRAS G12C diluted to 5 nM in assay buffer (25 mM Hepes pH 7.5, 50 mM NaCl, 10 mM MgCl2 and 0.01% Brij-35) was added to the plate and pre-incubated with inhibitor for 2 hours at ambient temperature. Appropriate controls (enzyme with no inhibitor or with a G12C inhibitor (AMG-510)) were included on the plate. The exchange was initiated by the addition of a 5 μL/well volume containing 1 mM GppNHp and 300 nM SOS1 in assay buffer. The 10 μL/well reaction concentration of the bodipy-loaded KRAS G12C, GppNHp, and SOS1 were 2.5 nM, 500 uM, and 150 nM, respectively. The reaction plates were incubated at ambient temperature for 2 hours, a time estimated for complete GDP-GTP exchange in the absence of inhibitor. For the KRAS G12D and G12V mutants, similar guanine nucleotide exchange assays were used with 2.5 nM as final concentration for the bodipy loaded KRAS proteins and with 4 hours and 3 hours incubation after adding GppNHp-SOS1 mixture for G12D and G12V respectively. A cyclic peptide described to selectively bind G12D mutant (Sakamoto et al., BBRC 484.3 (2017), 605-611) or internal compounds with confirmed binding were used as positive controls in the assay plates. Fluorescence intensities were measured on a PheraStar plate reader instrument (BMG Labtech) with excitation at 485 nm and emission at 520 nm.
Either GraphPad prism or XLfit was used to analyze the data. The IC50 values were derived by fitting the data to a four parameter logistic equation producing a sigmoidal dose-response curve with a variable Hill coefficient. Prism equation: Y=Bottom+(Top−Bottom)/(1+10^((Log IC50−X)*Hill slope)); XLfit equation: Y=(A+((B−A)/(1+((X/C)^D)))) where X is the logarithm of inhibitor concentration and Y is the response.
The symbol “†” indicates IC50≤100 nM, “††” indicates IC50>100 nM but ≤1 μM; and “†††” indicates IC50 is >1 μM but ≤5 μM, “††††” indicates IC50 is >5 μM but ≤10 μM.

KRAS G12D, sequence (P01116 1-188 isoform P01116-2 G12D): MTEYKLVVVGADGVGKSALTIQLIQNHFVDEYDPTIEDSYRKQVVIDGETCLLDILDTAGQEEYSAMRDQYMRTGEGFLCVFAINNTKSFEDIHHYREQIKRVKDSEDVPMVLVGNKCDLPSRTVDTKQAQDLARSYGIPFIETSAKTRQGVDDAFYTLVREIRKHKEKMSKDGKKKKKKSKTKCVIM

SMILES: CN(C)C1CN(c2nc(N3C4CCC3CNC4)c3ccc(-c4cc(O)cc5ccccc45)c(F)c3c2C#N)C1 [Example 1, 1-(3,8-diazabicyclo[3.2.1]octan-8-yl)-3-(3-(dimethylamino)azetidin-1-yl)-5-fluoro-6-(3-hydroxynaphthalen-1-yl)isoquinoline-4-carbonitrile]
IC50: ≤ 100 nM

SMILES: CN(C)C1CN(c2nc(N3CCC(CC#N)C3)c3cc(CCC#N)c(-c4cc(O)cc5ccccc45)c(F)c3c2C#N)C1 (stereo not shown) [Example 12, 7-(2-cyanoethyl)-1-(3-(cyanomethyl)pyrrolidin-1-yl)-3-(3-(dimethylamino)azetidin-1-yl)-5-fluoro-6-(3-hydroxynaphthalen-1-yl)isoquinoline-4-carbonitrile]
IC50: ≤ 100 nM

SMILES: CCc1c(F)ccc2cc(O)cc(-c3ncc4c(N5CC6CCC(C5)N6)nc(N5CC(C)(N(C)C)C5)c(C#N)c4c3F)c12 [Example 16, 1-(3,8-diazabicyclo[3.2.1]octan-3-yl)-3-(3-(dimethylamino)-3-methylazetidin-1-yl)-6-(8-ethyl-7-fluoro-3-hydroxynaphthalen-1-yl)-5-fluoro-2,7-naphthyridine-4-carbonitrile]
IC50: ≤ 100 nM

SMILES: CN(C)C1CN(c2nc(N3C[C@H]4CC[C@@H]3CN4)c3cc(CCC#N)c(-c4cc(O)cc5ccccc45)c(F)c3c2C#N)C1 [Example 10, 1-((1R,4R)-2,5-diazabicyclo[2.2.2]octan-2-yl)-7-(2-cyanoethyl)-3-(3-(dimethylamino)azetidin-1-yl)-5-fluoro-6-(3-hydroxynaphthalen-1-yl)isoquinoline-4-carbonitrile]
IC50: 100 to 1000 nM

SMILES: C[C@@H]1C[C@H](N)CN1c1nc(N2CC(N(C)C)C2)c(C#N)c2c(F)c(-c3cc(O)cc4ccccc34)c(CCC#N)cc12 [Example 14, 1-((2R,4S)-4-amino-2-methylpyrrolidin-1-yl)-7-(2-cyanoethyl)-3-(3-(dimethylamino)azetidin-1-yl)-5-fluoro-6-(3-hydroxynaphthalen-1-yl)isoquinoline-4-carbonitrile]
IC50: ≤ 100 nM

SMILES: CN(C)C1CN(c2nc(N3CC[C@H](N)C3)c3cc(CCC#N)c(-c4cc(O)cc5ccccc45)c(F)c3c2C#N)C1 [Example 13, 1-((S)-3-aminopyrrolidin-1-yl)-7-(2-cyanoethyl)-3-(3-(dimethylamino)azetidin-1-yl)-5-fluoro-6-(3-hydroxynaphthalen-1-yl)isoquinoline-4-carbonitrile]
IC50: ≤ 100 nM

SMILES: CN(C)C1CN(c2nc(N3C[C@@H](N)C[C@H]3CO)c3cc(CCC#N)c(-c4cc(O)cc5ccccc45)c(F)c3c2C#N)C1 [Example 11, 1-((2S,4S)-4-amino-2-(hydroxymethyl)pyrrolidin-1-yl)-7-(2-cyanoethyl)-3-(3-(dimethylamino)azetidin-1-yl)-5-fluoro-6-(3-hydroxynaphthalen-1-yl)isoquinoline-4-carbonitrile]
IC50: 100 to 1000 nM

SMILES: N#Cc1c(OC[C@@]23CCCN2C[C@H](F)C3)nc(N2CC3CCC(C2)N3)c2cnc(-c3cc(O)cc4ccccc34)c(F)c12 [Example 15, 1-(3,8-diazabicyclo[3.2.1]octan-3-yl)-5-fluoro-3-(((2R,7aS)-2-fluorotetrahydro-1H-pyrrolizin-7a(5H)-yl)methoxy)-6-(3-hydroxynaphthalen-1-yl)-2,7-naphthyridine-4-carbonitrile]
IC50: ≤ 100 nM

Other lines, results leading:

IC50: 100 to 1000 nM
SMILES: CN1CCC[C@H]1COc1nc(N2C3CCC2CNC3)c2cc(CCC#N)c(-c3cc(O)cc4ccccc34)c(F)c2c1C#N [Example 7, 1-(3,8-diazabicyclo[3.2.1]octan-8-yl)-7-(2-cyanoethyl)-5-fluoro-6-(3-hydroxynaphthalen-1-yl)-3-(((S)-1-methylpyrrolidin-2-yl)methoxy)isoquinoline-4-carbonitrile]

IC50: 5000 to 10000 nM
SMILES: CN(C)C1CN(c2nc(N3C4CCC3CNC4)c3cc(CCC#N)c(-c4cc(O)cc5ccccc45)c(F)c3c2-c2ccccc2)C1 [Example 4, 3-(1-(3,8-diazabicyclo[3.2.1]octan-8-yl)-3-(3-(dimethylamino)azetidin-1-yl)-5-fluoro-6-(3-hydroxynaphthalen-1-yl)-4-phenylisoquinolin-7-yl)propanenitrile]

IC50: 100 to 1000 nM
SMILES: Cc1c(N2CC(N(C)C)C2)nc(N2C3CCC2CNC3)c2cc(CCC#N)c(-c3cc(O)cc4ccccc34)c(F)c12 [Example 3, 3-(1-(3,8-diazabicyclo[3.2.1]octan-8-yl)-3-(3-(dimethylamino)azetidin-1-yl)-5-fluoro-6-(3-hydroxynaphthalen-1-yl)-4-methylisoquinolin-7-yl)propanenitrile]

IC50: 100 to 1000 nM
SMILES: CN(C)C1CN(c2nc(N3C4CCC3CNC4)c3cc(CCC#N)c(-c4cc(O)cc5ccccc45)c(F)c3c2Cl)C1 [Example 2, 3-(1-(3,8-diazabicyclo[3.2.1]octan-8-yl)-4-chloro-3-(3-(dimethylamino)azetidin-1-yl)-5-fluoro-6-(3-hydroxynaphthalen-1-yl)isoquinolin-7-yl)propanenitrile]

IC50: 100 to 1000 nM
SMILES: CN1CCC(Oc2nc(N3C4CCC3CNC4)c3cc(CCC#N)c(-c4cc(O)cc5ccccc45)c(F)c3c2C#N)CC1 [Example 8, 1-(3,8-diazabicyclo[3.2.1]octan-8-yl)-7-(2-cyanoethyl)-5-fluoro-6-(3-hydroxynaphthalen-1-yl)-3-((1-methylpiperidin-4-yl)oxy)isoquinoline-4-carbonitrile]

IC50: 100 to 1000 nM
SMILES: CN(C)C1CN(c2nc(N3C4CCC3CNC4)c3cc(CCC#N)c(-c4cc(O)cc5ccccc45)c(F)c3c2C2CC2)C1 [Example 5, 3-(1-(3,8-diazabicyclo[3.2.1]octan-8-yl)-4-cyclopropyl-3-(3-(dimethylamino)azetidin-1-yl)-5-fluoro-6-(3-hydroxynaphthalen-1-yl)isoquinolin-7-yl)propanenitrile]

IC50: 100 to 1000 nM
SMILES: CN(C)C1CN(c2nc(N3C4CCC3CNC4)c3cc(CCC#N)c(-c4cc(O)cc5ccccc45)c(F)c3c2C#N)C1 [Example 6, 1-(3,8-diazabicyclo[3.2.1]octan-8-yl)-7-(2-cyanoethyl)-3-(3-(dimethylamino)azetidin-1-yl)-5-fluoro-6-(3-hydroxynaphthalen-1-yl)isoquinoline-4-carbonitrile]

IC50: 100 to 1000 nM
SMILES: CN(C)Cc1cccc(-c2nc(N3C4CCC3CNC4)c3cc(CCC#N)c(-c4cc(O)cc5ccccc45)c(F)c3c2C#N)c1 [Example 9, 1-(3,8-diazabicyclo[3.2.1]octan-8-yl)-7-(2-cyanoethyl)-3-(3-((dimethylamino)methyl)phenyl)-5-fluoro-6-(3-hydroxynaphthalen-1-yl)isoquinoline-4-carbonitrile]

Source: patent publication US12331063B2, “Hetero-bicyclic inhibitors of KRAS” (Incyte Corporation, priority 2021, dated 2025)
